In patent US12527782B2, “Use of hexokinase 2/mitochondria-detaching compounds for treating hexokinase-2 (HK2)-expressing cancers” (Vidac Pharma Ltd., priority 2016, dated 2026):
Values joined by “and” are separate entries in the source; they are usually repeats but may differ in a detail not shown here. Equal values may be shown once.

What was measured:
[1] = tested on: Leukemia (ALL) LEXFAL MOLT-4; experiment: CFA, LEXFAL MOLT-4; format: cell-based, human; conditions: Cell line/CFA
Description: (§1) CFA was performed by Charles River Laboratories (Freiburg, Germany) in 96-well plate format according to a modified two-layer soft agar assay. The origin of the tumor xenografts has been described (Fiebig et al. 1989, incorporated herein by reference). The list of tumors used in this study is detailed in Table 1.

Prostate PC-3 = experiment: XTT cell viability assay, PC-3; format: cell-based, human; conditions: Cell line/XTT
Description: (§2) For XTT assays, cells were plated in 96-well plates (5,000 cells per well) for 24 hours. Cells were then incubated with different concentrations of Formula C in triplicates for 72 hr in DMEM supplemented with 0.5% FCS and 5 mM Glucose. Cell viability was evaluated using 2,3-bis-(2-methoxy-4-nitro-5-sulfophenyl)-2H-tetrazolium-5-carboxanilide (XTT)-based colorimetric assay kit (Biological Industries Ltd., Kibbutz Beit-Haemek, Israel). The optical density was measured by an Infinite 200 ELISA reader at 450 nm and reference was measured at 630 nm (Tecan, Männedorf, Switzerland).

[2] = tested on: Leukemia (AML) LEXFAM NOMO-1; experiment: CFA, LEXFAM NOMO-1; format: cell-based, human; conditions: Cell line/CFA
Description: as §1

[3] = tested on: Leukemia (BCLL) LEXFCM MEG-01; experiment: CFA, LEXFCM MEG-01; format: cell-based, human; conditions: Cell line/CFA
Description: as §1

[4] = tested on: Leukemia (BCLL) LEXFCM EM-2; experiment: CFA, LEXFCM EM-2; format: cell-based, human; conditions: Cell line/CFA
Description: as §1

Head & Neck HNXF 536 = experiment: CFA, HNXF 536; format: cell-based, human; conditions: PDX/CFA
Description: as §1

Breast MAXF 1322 = experiment: CFA, MAXF 1322; format: cell-based, human; conditions: PDX/CFA
Description: as §1

[5] = AK/cSCC mouse model of chronic UVB exposure: local and general tolerability; format: in vivo; conditions: UVB-exposed SKH-1 mice, Day 1 through Day 50
Description: The formulation ingredients for vehicle, 2.5%, and 5% Formula C ointment consisted of: 32% Gelucire44/14® (Gattefosse, Saint-Priest, France), and 68% combined Labrasol® (Gattefosse, Saint-Priest, France) with corresponding amount of Formula C (w/w). New ointments were prepared every 2 weeks. The 40% topical solution was prepared just prior to use by mixing (w/w) 60% propylene glycol (Sigma, St. Louis, MO, USA) with 40% Formula C.
The effect of Formula C on cell proliferation and apoptosis was tested in an AK/cSCC mouse model of chronic UVB exposure. Forty-eight SKH-1 hairless female mice were chronically exposed to UVB radiation for 16 weeks. By that time, more than 60% of the animals had developed at least one SCC lesion. Three days after the final irradiation dose, the mice were randomly assigned to 1 of 4 treatment groups (N=12 mice/group) and a 50-day treatment phase started. Treatment groups included: vehicle, 2.5% or 5% Formula C ointment applied once-daily for 50 days, or 40% Formula C topical solution applied once-daily for the first 5 days of every three-week cycle (total of three treatment cycles).

[6] = Phase 2a in subjects with actinic keratosis, safety; format: in vivo, human
Description: The Phase 2 clinical trial was a multiple-center randomized, double-blind, placebo-controlled, parallel-cohorts study to evaluate the efficacy, safety, tolerability, and pharmacokinetics of once-daily application of topical Formula C ointment (QD 200 mg) for 28 days in subjects with actinic keratosis. Subjects were followed for one or two months after they completed treatment (through day 56 or day 84). The primary and exploratory efficacy endpoints for the study were reduction in the number of lesions on days 56 and 84, respectively. Subjects were randomly assigned in a double-blind fashion to one of three parallel treatment cohorts (5%, or 10% Formula C, or placebo) at a ratio of 1:1:1. To qualify for the study, subjects aged 18 (inclusive) or older must have had 4-8 discrete Grade 1 or 2 AK lesions within a 25-centimeter squared area of the skin of their scalp or face. The study enrolled 93 subjects in the US and Israel.

[7] = tested on: Cutanous T cell lymphoma MyLa; experiment: CFA, MyLa; format: cell-based, human; conditions: Cell line/CFA
Description: as §1

[8] = tested on: HT-297.T Actinic keratosis cells; experiment: XTT cell viability assay, HT-297.T; format: cell-based, human; conditions: Actinic keratosis HT-297.T; Cell line/XTT; 72 hr
Description: A431 (human skin SCC), HT-297.T (human AK), and HaCaT transformed normal keratinocyte cell lines were from ATCC (Manassas, VA) and were maintained in DMEM supplemented with 10% FCS, 4 mM L-Gln, 1 mM sodium pyruvate, 100 U/mL penicillin, 1 μg/mL streptomycin. Human HK1 and HK2 plasmids were purchased from Addgene (Cambridge, MA) and were purified from E. Coli. VDAC1 was purified from sheep liver mitochondria as described (Arbel et al. 2012, incorporated herein by reference). Human skin tissue microarray (SK208 and SK 805) were purchased from US Biomax Inc. (Rockville, MD).
as §2

CTCL cell line Hut-78 = experiment: PrestoBlue cell viability, Hut-78; format: cell-based, human; conditions: 72 hours
Description: Cutaneous T-cell lymphoma (CTCL) cell lines MJ and Hut78 were purchased from ATCC (CRL-8294, and TIB-161, respectively). Cells were grown in Iscove's Modified Dulbecco's Media supplemented with 2 mM L-glutamine, 10% fetal bovine serum, 100 U/mL of penicillin and 0.1 mg/mL of streptomycin.
Cells (1-2×10^4) were seeded in 96-well plates and treated with Formula C. Cell viability was determined 72 hours later using PrestoBlue reagent according to manufacturer's instruction (Life Technologies). The percentage of viability was expressed according to the fluorescence emitted by Formula C-treated cells compared to DMSO-treated control cells. The florescence emission values at 590 nm were measured with the plate-reader Spark 10M—multimode microplate reader (TECAN).

[9] = Phase 1a single topical application, safety and tolerability; format: in vivo, human; conditions: healthy volunteers
Description: The Phase 1a clinical trial was a randomized, double-blinded, placebo-controlled, dose-escalation study in healthy older-adult volunteers to evaluate the safety, tolerability, and pharmacokinetics of a single topical dermal application of Formula C ointment. The study was conducted under FDA IND in a Phase 1 unit in the United States.
Fifteen healthy volunteers, aged 35-70, were sequentially assigned to 1 of 3 consecutive treatment cohorts (5%, 10% or 20% Formula C ointment, respectively). Five subjects were randomized in a double-blind fashion in each dose cohort: 4 subjects received active Formula C ointment and 1 received matched placebo (0% Formula C; vehicle control). The study ointment (250 mg) was applied once to a 25 centimeter squared area of skin on the forehead of each volunteer.

With `CC/C=C\CC1C(=O)CCC1CC(=O)Oc1cccc2cccnc12` (stereo not shown) [Formula C] the IC50 [1] was 2.28 µM, the IC50 (Prostate PC-3) was 1.2 µM and the IC50 [2] was 1.42 µM. It also gave an IC50 [3] of 2.76 µM, an IC50 [4] of 2.78 µM and an IC50 (Head & Neck HNXF 536) of 1.44 µM. The IC50 (Breast MAXF 1322) was 1.55 µM, the “adverse local skin reactions” value ([5]; 2.5%, 5% ointment or 40% topical solution) was “no adverse local skin reactions of any kind” and the body weight abnormalities [5] was “no abnormalities in body weight”. The clinical signs [5] was “no clinical signs”, the erythema or edema [5] was “no erythema or edema” and the “serious adverse events (deemed unrelated)” value ([6]; 5% group) was 1 elective surgery. For the same compound, the “treatment-emergent AEs deemed related to the study drug” value ([6]; 5% group, listed as VDA-1102) was 1 mild dyspepsia and 1 mild hypopigmentation, the “serious adverse events (deemed unrelated)” value ([6]; 10% group) was 1 acute pneumonia and the “clinically significant changes at application sites (Local Skin Reactions), vital signs, physical examinations, clinical laboratory results, ECGs” value ([6]; any subject, any time point) was “No clinically significant changes”. For the same compound, the safety signals ([6]; subjects with AK, 5% or 10% ointment QD 28 days) was “No safety signals”, the IC50 [7] was < 1 µM and the IC50 [8] was 0.228 µM. The IC50 (CTCL cell line Hut-78) was 1.06 µM, the “clinically significant changes at application sites, vital signs, physical examinations, clinical laboratory results, ECGs, Holter monitors” value ([9]; single topical application) was “No clinically significant changes” and the “severity and course of adverse events” value ([9]; single topical application) was “mild, short-lived and reversible”. For the same compound, the serious adverse events ([9]; single topical application of 250 mg 5%, 10% or 20% ointment to 25 cm2 forehead) was “No serious adverse events”.
